The results in this text go back to US7767238B2, “Beverage composition and method of preventing degradation of vitamins in beverages” (PepsiCo, Inc., priority 2005, dated 2010).

Data set [1] can be described thus: Vitamin stabilization ability, observed rank order. The note with it: more hydroxyl groups on the aryl rings enhance vitamin stabilization.
Data set [2] in a line: Vitamin A remaining in fruit juice in 20 oz. PET bottle under store fluorescent light. The format is physicochemical. The note with it: freshly prepared 3500 IU fruit juice, typical store fluorescent light, one week, no stabilizer.
Data set [3] can be described thus: Vitamin A Palmitate remaining in clear lemon-lime CSD with Vitamin C and EDTA, clear glass, store fluorescent light (Example 2). The format is physicochemical. Particulars: 100 ppm stabilizer, start 2000 IU, one week fluorescent light, Light control 548, Dark control 1870. The protocol: (§1) A clear lemon-lime (L/L) carbonated soft drink (CSD) with Vitamin C and ethylene-diaminetetraacetic acid (EDTA) was prepared. Seven samples of the carbonated soft drink were prepared each containing 2500 IU of Vitamin A Palmitate which can be obtained from Roche and the amount of rutin, SanMelin or blueberry leaves extract indicated in Table 8. All samples were packaged in clear glass containers. The Dark and Light samples were each free of rutin, SanMelin or blueberry leaves extract. The Dark sample was shielded from light. All the other samples, including the Light sample were exposed to typical store fluorescent light. The values in the table were all measured at one week.
Example 2 differed from Example 1 in that the starting amount of Vitamin A Palmitate was 2000 IU.

A short description of data set [4]: Vitamin A Palmitate remaining in clear lemon-lime CSD with Vitamin C and EDTA, clear glass, store fluorescent light (Example 1). In kind it is physicochemical. Particulars: start 2500 IU, one week fluorescent light, Light control 576, Dark control 2300. The protocol: as §1
Data set [5] can be described thus: Vitamin A Palmitate remaining in non-carbonated pink lemonade 5% juice, PET bottle, store fluorescent light (Example 3). The note with it: 66 ppm stabilizer, start 3500 IU, one week fluorescent light, Light control 737, Dark control 3215. In kind it is physicochemical. The procedure: as §1
A non-carbonated pink lemonade beverage composed of 5% juice was prepared. Seven samples like the ones in Examples 1 and 2 were prepared except that the starting amount of Vitamin A Palmitate was 3500 IU and the samples were packaged in PET containers.

For the molecule `O=C(O)C=Cc1ccccc1` [cinnamic acid], the “vitamin stabilization ability (rank order)” value (from here on “vitamin stabilization ability”) in data set [1] was “caffeic acid (2 hydroxyl groups)>ferulic acid>coumaric acid>cinnamic acid”.

In the case of Vitamin A, the “remaining Vitamin A content” value in data set [2] is “approximately 1000 IU”.

Consider `O=C(O)/C=C/c1ccc(O)c(O)c1` [caffeic acid], for which, in data set [1], the “vitamin stabilization ability” value is “caffeic acid (2 hydroxyl groups)>ferulic acid>coumaric acid>cinnamic acid”.

Take `COc1cc(/C=C/C(=O)O)ccc1O` [ferulic acid]: the “vitamin stabilization ability” value in data set [1] is reported as “caffeic acid (2 hydroxyl groups)>ferulic acid>coumaric acid>cinnamic acid”.

As for `O=C(O)/C=C/c1ccc(O)cc1` [coumaric acid], in data set [1], the “vitamin stabilization ability” value is “caffeic acid (2 hydroxyl groups)>ferulic acid>coumaric acid>cinnamic acid”.

With `C[C@@H]1O[C@@H](OC[C@H]2O[C@@H](Oc3c(-c4ccc(O)c(O)c4)oc4cc(O)cc(O)c4c3=O)[C@H](O)[C@@H](O)[C@@H]2O)[C@H](O)[C@H](O)[C@H]1O` [Rutin, rutin], the “IU of Vitamin A Palmitate” value in data set [3] amounted to 856 IU; in data set [4] (33 ppm stabilizer) it was 878 IU; in data set [4] (66 ppm stabilizer) it was 1215 IU; in data set [5] it was 1824 IU.
